In ChEMBL document CHEMBL1127586, “Central cholinergic agents. 6. Synthesis and evaluation of 3-[1-(phenylmethyl)-4-piperidinyl]-1-(2,3,4,5-tetrahydro-1H-1-benzazepi n-8-yl)-1-propanones and their analogs as central selective acetylcholinesterase inhibitors” (J Med Chem, 1994):
Where “and” joins values, the source holds several entries; their conditions need not be identical. Identical values can stand only once.

Columns and labels:
Rattus norvegicus [1] = test: Effect of compound on peripheral cholinergic effects in male wistar rats when administered orally at a dose of 1 mg/Kg; No significant change; format: functional, organism-based
Rattus norvegicus [2] = test: Effect of compound on peripheral cholinergic effects in male wistar rats when administered orally at a dose of 10 mg/Kg; fasciculation, lacrimation; format: functional, organism-based
Rattus norvegicus [3] = test: Effect of compound on peripheral cholinergic effects in male wistar rats when administered orally at a dose of 3 mg/Kg; salivation; format: functional, organism-based
Rattus norvegicus [4] = test: Effect of compound on peripheral cholinergic effects in male wistar rats when administered orally at a dose of 30 mg/Kg; fasciculation, lacrimation; format: functional, organism-based
Rattus norvegicus [5] = test: Number of circlings observed for 30 min at 1 mg/kg orally administered dose in rats; format: functional; settings: route oral
Rattus norvegicus [6] = species on record: Rattus norvegicus; settings: dose 10 mg/kg; route oral
Description: Number of circlings observed for 30 min at 10 mg/kg orally administered dose in rats

Rattus norvegicus [7] = test: Peripheral cholinergic effects in male wistar rats when administered orally at a dose of 10 mg/Kg.; format: functional, organism-based
Rattus norvegicus [8] = test: Peripheral cholinergic effects in male wistar rats when administered orally at a dose of 3 mg/Kg.; format: functional, organism-based
Rattus norvegicus [9] = test: Number of circlings observed for 30 min at 3 mg/kg orally administered dose in rats; format: functional; settings: route oral
Acetylcholinesterase = target: T1, Acetylcholinesterase (Rattus norvegicus, UniProt P37136)
T1 sequence (P37136 whole entry): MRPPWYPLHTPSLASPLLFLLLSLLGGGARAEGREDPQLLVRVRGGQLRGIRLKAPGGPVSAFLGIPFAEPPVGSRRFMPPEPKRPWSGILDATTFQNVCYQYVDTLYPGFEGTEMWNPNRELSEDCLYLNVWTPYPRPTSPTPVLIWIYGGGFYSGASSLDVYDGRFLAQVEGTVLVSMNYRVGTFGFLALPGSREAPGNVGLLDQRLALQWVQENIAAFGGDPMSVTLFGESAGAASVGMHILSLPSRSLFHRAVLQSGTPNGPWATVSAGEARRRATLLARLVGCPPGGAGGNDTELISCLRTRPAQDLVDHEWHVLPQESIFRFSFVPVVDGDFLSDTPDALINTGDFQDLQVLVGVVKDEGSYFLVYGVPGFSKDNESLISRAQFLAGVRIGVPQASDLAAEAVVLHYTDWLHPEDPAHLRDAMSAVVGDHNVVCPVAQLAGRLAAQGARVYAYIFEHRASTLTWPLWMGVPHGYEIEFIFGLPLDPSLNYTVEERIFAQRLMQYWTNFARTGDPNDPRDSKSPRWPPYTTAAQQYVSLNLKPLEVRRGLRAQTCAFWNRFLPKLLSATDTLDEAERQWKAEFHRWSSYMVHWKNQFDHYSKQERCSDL
Description: Inhibition of acetylcholinesterase (AChE)

Rattus norvegicus [10] = test: Effect of compound on peripheral cholinergic effects in male wistar rats when administered orally at a dose of 30 mg/Kg; fasciculation, diarrhea; format: functional, organism-based
Rattus norvegicus [11] = test: Effect of compound on peripheral cholinergic effects in male wistar rats when administered orally at a dose of 3 mg/Kg; fasciculation; format: functional, organism-based
Rattus norvegicus [12] = test: Effect of compound on peripheral cholinergic effects in male wistar rats when administered orally at a dose of 10 mg/Kg; fasciculation, salivation; format: functional, organism-based
Rattus norvegicus [13] = test: Effect of compound on peripheral cholinergic effects in male wistar rats when administered orally at a dose of 30 mg/Kg; fasciculation, salivation; format: functional, organism-based
Rattus norvegicus [14] = test: Effect of compound on peripheral cholinergic effects in male wistar rats when administered orally at a dose of 30 mg/Kg; fasciculation, lacrimation, salivation; format: functional, organism-based
Rattus norvegicus [15] = species on record: Rattus norvegicus; test: Inhibition of circling behavior, percentage of control was reported; (p<0.05); format: functional; parameters: scale not given: the % may be the effect or the level left
Rattus norvegicus [16] = test: Effect of compound on peripheral cholinergic effects in male wistar rats when administered orally at a dose of 10 mg/Kg; salivation; format: functional, organism-based
[17] = Acute toxicity in rat by peroral administration; format: organism-based; settings: in vivo, po
[18] = ED50/MED ratio; format: functional
[19] = LD50/MED ratio; format: ADME; settings: read-out: Therapeutic index
Rattus norvegicus [20] = species on record: Rattus norvegicus
Description: Ameliorating effects on diazepam-induced memory impairment of passive avoidance response (no of rats) by peroral administration

Rattus norvegicus [21] = species on record: Rattus norvegicus; test: animal or person; settings: read-out: MED
Description: Ameliorating effects on diazepam-induced memory impairment of passive avoidance response (no of rats)

Rattus norvegicus [22] = species on record: Rattus norvegicus; test: animal or person; settings: po
Description: Tested for effective inhibition by peroral administration

Rattus norvegicus [23] = test: Effect of compound on peripheral cholinergic effects in male wistar rats when administered orally at a dose of 30 mg/Kg; […]; format: functional, organism-based

O=C(CCC1CCN(Cc2ccccc2)CC1)c1ccc2c(c1)NCCCCC2
Activity (Rattus norvegicus [1]): No activity | Activity (Rattus norvegicus [2]): Fasciculation, Lacrimation | Activity (Rattus norvegicus [3]): Salivation | Activity (Rattus norvegicus [4]): Fasciculation, Lacrimation | No. of circlings (Rattus norvegicus [5]): 60.7

O=C(CCC1CCN(Cc2cccc([N+](=O)[O-])c2)CC1)c1ccc2c(c1)CCN2
No. of circlings (Rattus norvegicus [6]): 91.1

CN1CCCc2ccc(C(=O)CCC3CCN(Cc4ccccc4)CC3)cc21
Activity (Rattus norvegicus [7]): Fasciculation | Activity (Rattus norvegicus [8]): No activity | Activity (Rattus norvegicus [4]): Fasciculation | No. of circlings (Rattus norvegicus [9]): 105.6

O=C(CCC1CCN(Cc2ccc(F)cc2)CC1)c1ccc2c(c1)CCN2
Activity (Rattus norvegicus [2]): Fasciculation, Lacrimation | Activity (Rattus norvegicus [8]): No activity | Activity (Rattus norvegicus [4]): Fasciculation, Lacrimation | No. of circlings (Rattus norvegicus [9]): 107.4 | IC50 (Acetylcholinesterase): 89 nM

O=C(CCC1CCN(Cc2ccccc2)CC1)c1ccc2c(c1)CCN2
Activity (Rattus norvegicus [2]): Fasciculation, Lacrimation | Activity (Rattus norvegicus [8]): No activity | Activity (Rattus norvegicus [4]): Fasciculation, Lacrimation | No. of circlings (Rattus norvegicus [9]): 52.4

O=C(CCC1CCN(Cc2ccccc2)CC1)c1ccc2c(c1)NCC2
No. of circlings (Rattus norvegicus [5]): 107.9

O=C(CCC1CCN(Cc2cccc(F)c2)CC1)c1ccc2c(c1)CCN2
Activity (Rattus norvegicus [7]): Fasciculation | Activity (Rattus norvegicus [8]): No activity | No. of circlings (Rattus norvegicus [9]): 84.3

CCCN1CCCCc2ccc(C(=O)CCC3CCN(Cc4ccccc4)CC3)cc21
IC50 (Acetylcholinesterase): 1330 nM

COc1cccc(CN2CCC(CCC(=O)c3ccc4c(c3)NCCCC4)CC2)c1
IC50 (Acetylcholinesterase): 847 nM

O=C(CCC1CCN(Cc2ccc(F)cc2)CC1)c1ccc2c(c1)NCCCC2
IC50 (Acetylcholinesterase): 393 nM

CCCN1CCc2cc(C(=O)CCC3CCN(Cc4ccccc4)CC3)ccc21
No. of circlings (Rattus norvegicus [6]): 81

CCCCN1CCc2cc(C(=O)CCC3CCN(Cc4ccccc4)CC3)ccc21
Activity (Rattus norvegicus [7]): Fasciculation | Activity (Rattus norvegicus [8]): No activity | Activity (Rattus norvegicus [10]): Fasciculation, Diarrhea | No. of circlings (Rattus norvegicus [9]): 86.4

COc1ccccc1CN1CCC(CCC(=O)c2ccc3c(c2)CCN3)CC1
IC50 (Acetylcholinesterase): 812 nM

O=C(CCC1CCN(Cc2cccc(Cl)c2)CC1)c1ccc2c(c1)CCCN2
Activity (Rattus norvegicus [1]): No activity | Activity (Rattus norvegicus [7]): Fasciculation | Activity (Rattus norvegicus [11]): Fasciculation | Activity (Rattus norvegicus [4]): Fasciculation, Lacrimation | No. of circlings (Rattus norvegicus [5]): 70.1 | No. of circlings (Rattus norvegicus [9]): 77.4 | IC50 (Acetylcholinesterase): 54 nM

COc1ccccc1CN1CCC(CCC(=O)c2ccc3c(c2)NCCCC3)CC1
IC50 (Acetylcholinesterase): 2620 nM

O=C(CCC1CCN(Cc2ccccc2)CC1)c1ccc2c(c1)NCCC2
Activity (Rattus norvegicus [7]): Fasciculation | Activity (Rattus norvegicus [8]): No activity | No. of circlings (Rattus norvegicus [9]): 60.5

O=C(CCC1CCN(Cc2ccc(Cl)cc2)CC1)c1ccc2c(c1)CCN2
IC50 (Acetylcholinesterase): 6360 nM

CN1CCCCc2ccc(C(=O)CCC3CCN(Cc4ccccc4)CC3)cc21
Activity (Rattus norvegicus [7]): Fasciculation | Activity (Rattus norvegicus [8]): No activity | No. of circlings (Rattus norvegicus [9]): 100.3

CCCCCN1CCc2cc(C(=O)CCC3CCN(Cc4ccccc4)CC3)ccc21
Activity (Rattus norvegicus [12]): Fasciculation, Salivation | Activity (Rattus norvegicus [8]): No activity | No. of circlings (Rattus norvegicus [9]): 79

O=C(CCC1CCN(Cc2ccccc2)CC1)c1ccc2c(c1)CCCCN2
Activity (Rattus norvegicus [7]): Fasciculation | Activity (Rattus norvegicus [8]): No activity | Activity (Rattus norvegicus [13]): Fasciculation, Salivation | No. of circlings (Rattus norvegicus [9]): 94.7

COc1cccc(CN2CCC(CCC(=O)c3ccc4c(c3)CCN4)CC2)c1
IC50 (Acetylcholinesterase): 2680 nM

O=C(CCC1CCN(Cc2cccc(Cl)c2)CC1)c1ccc2c(c1)CCCN2Cc1ccccc1
IC50 (Acetylcholinesterase): 164 nM | No. of circlings (Rattus norvegicus [6]): 88

CCN1CCc2cc(C(=O)CCC3CCN(Cc4ccccc4)CC3)ccc21
Activity (Rattus norvegicus [7]): Fasciculation | Activity (Rattus norvegicus [8]): No activity | Activity (Rattus norvegicus [13]): Fasciculation, Salivation | No. of circlings (Rattus norvegicus [9]): 89.7

O=C(CCC1CCN(Cc2ccccc2)CC1)c1ccc2c(c1)N(Cc1ccccc1)CCC2
IC50 (Acetylcholinesterase): 1490 nM

O=C(CCC1CCN(Cc2cccc(Cl)c2)CC1)c1ccc2c(c1)NCCCC2
IC50 (Acetylcholinesterase): 333 nM

O=C(CCC1CCN(Cc2cccc(F)c2)CC1)c1ccc2c(c1)NCCCC2
Activity (Rattus norvegicus [7]): Fasciculation | Activity (Rattus norvegicus [8]): No activity | Activity (Rattus norvegicus [4]): Fasciculation, Lacrimation | No. of circlings (Rattus norvegicus [9]): 98.4

O=C(CCC1CCN(Cc2cccc(Cl)c2)CC1)c1ccc2c(c1)CCN2
IC50 (Acetylcholinesterase): 59 nM | No. of circlings (Rattus norvegicus [6]): 94.9

CN1CCCc2cc(C(=O)CCC3CCN(Cc4cccc(Cl)c4)CC3)ccc21
Activity (Rattus norvegicus [1]): No activity | Activity (Rattus norvegicus [2]): Fasciculation, Lacrimation | Activity (Rattus norvegicus [11]): Fasciculation | Activity (Rattus norvegicus [14]): Fasciculation, Lacrimation, Salivation | Control (Rattus norvegicus [15]): 58% | No. of circlings (Rattus norvegicus [5]): 76.5 | No. of circlings (Rattus norvegicus [9]): 54.5 | IC50 (Acetylcholinesterase): 24 nM

O=C(CCC1CCN(Cc2ccccc2)CC1)c1ccc2c(c1)N(Cc1ccccc1)CCCC2
IC50 (Acetylcholinesterase): 3140 nM

O=C(CCC1CCN(Cc2ccccc2F)CC1)c1ccc2c(c1)CCN2
Activity (Rattus norvegicus [16]): Salivation | Activity (Rattus norvegicus [8]): No activity | Activity (Rattus norvegicus [13]): Fasciculation, Salivation | IC50 (Acetylcholinesterase): 43 nM | No. of circlings (Rattus norvegicus [6]): 86.7

O=C(CCC1CCN(Cc2ccccc2)CC1)c1ccc2c(c1)NCCCC2 [ZANAPEZIL]
Activity (Rattus norvegicus [7]): Fasciculation | Activity (Rattus norvegicus [8]): No activity | Activity (Rattus norvegicus [4]): Fasciculation, Lacrimation | Control (Rattus norvegicus [15]): 69.9% | LD50 [17]: 334 mg/kg | No. of circlings (Rattus norvegicus [5]): 87.5 | No. of circlings (Rattus norvegicus [9]): 75.1 | Central selectivity [18]: 10.2 | selectivity ratio [19]: 334 | IC50 (Acetylcholinesterase): 97.7 nM | Avoidance time (Rattus norvegicus [20]): 106.6 s and 192.2 s and 193.2 s | minimal effective dose (Rattus norvegicus [21]): 1 mg/kg | ED50 (Rattus norvegicus [22]): 10.2 mg/kg

Cc1cccc(CN2CCC(CCC(=O)c3ccc4c(c3)CCN4)CC2)c1
Activity (Rattus norvegicus [7]): Fasciculation | Activity (Rattus norvegicus [8]): No activity | No. of circlings (Rattus norvegicus [9]): 104

O=C(CCC1CCN(Cc2ccccc2)CC1)c1ccc2c(c1)CCN2Cc1ccccc1
Activity (Rattus norvegicus [7]): Fasciculation | Activity (Rattus norvegicus [8]): No activity | Activity (Rattus norvegicus [4]): Fasciculation, Lacrimation | No. of circlings (Rattus norvegicus [9]): 66.8

CN1CCc2cc(C(=O)CCC3CCN(Cc4ccccc4)CC3)ccc21
Activity (Rattus norvegicus [2]): Fasciculation, Lacrimation | Activity (Rattus norvegicus [8]): No activity | Activity (Rattus norvegicus [14]): Fasciculation, Lacrimation, Salivation | Control (Rattus norvegicus [15]): 56.4% | No. of circlings (Rattus norvegicus [9]): 68.7 | No. of circlings (Rattus norvegicus [6]): 51.9

Cc1cccc(CN2CCC(CCC(=O)c3ccc4c(c3)NCCCC4)CC2)c1
Activity (Rattus norvegicus [8]): No activity | Activity (Rattus norvegicus [23]): Fasciculation | IC50 (Acetylcholinesterase): 224 nM | No. of circlings (Rattus norvegicus [6]): 61.4

O=C(CCC1CCN(Cc2ccccc2)CC1)c1ccc2c(c1)N(Cc1ccccc1)CC2
IC50 (Acetylcholinesterase): 853 nM

O=C(CCC1CCN(Cc2ccccc2Cl)CC1)c1ccc2c(c1)CCN2
IC50 (Acetylcholinesterase): 76 nM | No. of circlings (Rattus norvegicus [6]): 67.5

CCN1CCCCc2ccc(C(=O)CCC3CCN(Cc4ccccc4)CC3)cc21
IC50 (Acetylcholinesterase): 376 nM

O=C(CCC1CCN(Cc2cccc([N+](=O)[O-])c2)CC1)c1ccc2c(c1)NCCCC2
IC50 (Acetylcholinesterase): 390 nM
